Our source for the EC50 and melting point values is patent publication US20080051418A1, “Arylalkanoic Acid Derivative” (priority 2004, published 2008).

One data set has as its target T1, PPARγ-RXRα heterodimer (Homo sapiens, UniProt P37231).
T1 construct: expressed in transfected cells; host or cells: CHO-K1
T1 sequence (P37231 1-505): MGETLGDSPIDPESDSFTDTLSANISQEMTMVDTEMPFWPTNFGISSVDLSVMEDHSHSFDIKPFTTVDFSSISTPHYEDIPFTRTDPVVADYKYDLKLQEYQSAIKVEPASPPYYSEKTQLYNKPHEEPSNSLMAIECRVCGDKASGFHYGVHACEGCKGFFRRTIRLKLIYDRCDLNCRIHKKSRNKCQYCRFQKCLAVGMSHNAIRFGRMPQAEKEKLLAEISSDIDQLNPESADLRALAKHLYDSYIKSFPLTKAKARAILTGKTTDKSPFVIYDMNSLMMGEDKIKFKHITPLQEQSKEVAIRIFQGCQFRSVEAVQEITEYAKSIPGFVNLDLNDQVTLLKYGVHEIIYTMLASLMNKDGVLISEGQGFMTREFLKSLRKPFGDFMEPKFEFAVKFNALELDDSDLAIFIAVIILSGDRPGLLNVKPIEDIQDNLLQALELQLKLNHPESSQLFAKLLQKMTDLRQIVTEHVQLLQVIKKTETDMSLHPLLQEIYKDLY
T1 sequence (P19793 1-462 partner): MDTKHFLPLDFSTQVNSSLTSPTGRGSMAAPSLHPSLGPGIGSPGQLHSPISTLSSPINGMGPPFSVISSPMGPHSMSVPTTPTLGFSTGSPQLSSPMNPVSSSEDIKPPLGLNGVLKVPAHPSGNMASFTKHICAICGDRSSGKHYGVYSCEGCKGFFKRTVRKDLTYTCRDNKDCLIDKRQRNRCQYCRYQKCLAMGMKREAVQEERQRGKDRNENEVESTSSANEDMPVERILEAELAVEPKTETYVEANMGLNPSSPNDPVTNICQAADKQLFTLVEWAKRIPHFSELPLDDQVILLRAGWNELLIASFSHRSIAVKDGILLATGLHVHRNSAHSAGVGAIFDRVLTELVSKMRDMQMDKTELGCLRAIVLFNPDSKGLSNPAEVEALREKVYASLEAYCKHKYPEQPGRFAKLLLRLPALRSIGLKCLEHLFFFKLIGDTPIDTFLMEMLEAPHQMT
Kind of data set: PPARγ-RXRα heterodimer ligand activity (luciferase reporter). Format: cell-based. The conditions noted are these: PPARγ:RXRα:4ERPP/CHO-K1 cells, 18-24 hr, concentration showing 50% of the maximum induction rate. On the procedure:
The PPARγ:RXRα:4ERPP/CHO-K1 cells described in WO03/099793 were cultured in a Ham F12 medium [manufactured by Life Technologies, Inc., US] containing 10% calf fetal serum [manufactured by Life Technologies, Inc., US], sown in a 96-well white plate [manufactured by Corning Coster Corporation, US] at 2×10^4 cells/well, and incubated overnight in a carbon dioxide gas incubator at 37° C.
Then, the medium was removed from the 96 well white plate, 80 μl of Ham F12 medium containing 0.1% fatty acid-free bovine serum albumin (BSA) and a test compound (20 μl) were added, and the cells were incubated for 18-24 hr in a carbon dioxide gas incubator at 37° C. The medium was removed, 40 μl of PicaGene 7.5 (manufactured by Wako Pure Chemical Industries, Ltd.) diluted 2-fold with HBSS (HANKS' BALANCED SALT SOLUTION) [manufactured by BIO WHITTAKER, US] was added. After stirring, the luciferase activity was determined using the 1420 ARVO Multilabel Counter [manufactured by PerkinElmer, US].
The induction rate was calculated from the luciferase activity of each test compound based on the luciferase activity of the test compound non-administration group as 1. The test compound concentration and the induction rate were analyzed by PRISM [manufactured by GraphPad Software, Inc., US] to calculate EC50 value (compound concentration showing 50% of the maximum value of induction rate) of the test compound.

The structures appear in SMILES notation. Counter-ions that a name gives are not always drawn.

One may read the EC50 as the concentration at which the effect is half-maximal. A lower EC50 goes with greater potency. In general, melting point refers to the temperature, or range, at which the solid turns liquid.

Consider `Cc1cc(C(F)(F)F)ccc1Cn1nc(OC(C)C)cc1CCCOc1ncccc1CC(=O)O` [Example 80, [2-(3-{3-isopropoxy-1-[2-methyl-4-(trifluoromethyl)benzyl]-1H-pyrazol-5-yl}propoxy)pyridin-3-yl]acetic acid], for which the melting point is 105 to 107 °C. The compound further returned a concentration giving a half-maximal response (EC50) at PPARγ-RXRα heterodimer of 5.4 nM.
The matching figures for `CC(C)c1cc(CCCOc2nn(C)cc2CC(=O)O)n(Cc2ccc(Cl)cc2Cl)n1` [Example 33, (3-{3-[1-(2,4-dichlorobenzyl)-3-isopropyl-1H-pyrazol-5-yl]propoxy}-1-methyl-1H-pyrazol-4-yl)acetic acid]: 67 to 68 °C and 30 nM.
The matching figures for `Cc1nc(OCCCc2cc(OC(C)C)nn2Cc2ccc(Cl)cc2Cl)c(CC(=O)O)s1` [Example 36, (4-{3-[1-(2,4-dichlorobenzyl)-3-isopropoxy-1H-pyrazol-5-yl]propoxy}-2-methyl-1,3-thiazol-5-yl)acetic acid]: 75 to 77 °C and 20 nM.
As for `CCCOc1cc(CCCOc2c(CC(=O)O)cccc2OC)n(Cc2ccc(C(F)(F)F)cc2)n1` [Example 59, [3-methoxy-2-(3-{3-propoxy-1-[4-(trifluoromethyl)benzyl]-1H-pyrazol-5-yl}propoxy)phenyl]acetic acid], the melting point lay within 122 to 123 °C. Also, the EC50 at PPARγ-RXRα heterodimer is 23 nM.
In the case of `CC(C)c1cc(CCCOc2nn(Cc3ccccc3)cc2CC(=O)O)n(Cc2ccc(Cl)cc2Cl)n1` [Example 34, (1-benzyl-3-{3-[1-(2,4-dichlorobenzyl)-3-isopropyl-1H-pyrazol-5-yl]propoxy}-1H-pyrazol-4-yl)acetic acid 1/2 calcium salt], at PPARγ-RXRα heterodimer, the response was half-maximal at 1.7 nM (EC50).
With `CC(C)Oc1ccc(CCCOc2cc(CCC(=O)O)n(Cc3ccccc3)n2)c(Oc2ncc(C(F)(F)F)cc2Cl)c1` [Example 137, 3-{1-benzyl-3-[3-(2-{[3-chloro-5-(trifluoromethyl)pyridin-2-yl]oxy}-4-isopropoxyphenyl)propoxy]-1H-pyrazol-5-yl}propanoic acid], the melting point lay in the range of 99 to 100 °C. For the same compound, the EC50 on PPARγ-RXRα heterodimer is 0.61 nM.
Compound `Cc1cc(Cl)ccc1Cn1nc(OC(C)C)cc1CCCOc1nn(Cc2ccccc2)cc1CC(=O)O` [Example 73, (1-benzyl-3-{3-[1-(4-chloro-2-methylbenzyl)-3-isopropoxy-1H-pyrazol-5-yl]propoxy}-1H-pyrazol-4-yl)acetic acid] registered a melting point of 81 to 82 °C. This compound had an EC50 at PPARγ-RXRα heterodimer of 3 nM.
With `CCS(=O)(=O)CCOc1cc(CCCOc2nn(Cc3ccccc3)cc2CC(=O)O)n(Cc2ccc(Cl)cc2Cl)n1` [Example 98, [1-benzyl-3-(3-{1-(2,4-dichlorobenzyl)-3-[2-(ethylsulfonyl)ethoxy]-1H-pyrazol-5-yl}propoxy)-1H-pyrazol-4-yl]acetic acid], the melting point fell in the range of 100.4 to 101.4 °C. Besides, the EC50 on PPARγ-RXRα heterodimer was found to be 5.1 nM.
For `CC(C)c1cc(CCCOc2nn(Cc3ccccc3)cc2CC(=O)O)n(Cc2ccc(C(F)(F)F)cc2Cl)n1` [Example 75, [1-benzyl-3-(3-{1-[2-chloro-4-(trifluoromethyl)benzyl]-3-isopropyl-1H-pyrazol-5-yl}propoxy)-1H-pyrazol-4-yl]acetic acid], the EC50 on PPARγ-RXRα heterodimer was 1.9 nM. This counts as single-digit nanomolar.
On to `CC(C)Oc1cc(CCCOc2ccc3ccccc3c2CC(=O)O)n(Cc2ccc(Cl)cc2Cl)n1` [Example 85, (2-{3-[1-(2,4-dichlorobenzyl)-3-isopropoxy-1H-pyrazol-5-yl]propoxy}-1-naphthyl)acetic acid], for which the melting point lay within 120 to 122 °C. Besides, the EC50 on PPARγ-RXRα heterodimer turned out to be 2.6 nM.
On to `CC(C)Oc1ccc(CCCOc2nn(C)cc2CCC(=O)O)c(Oc2ncc(C(F)(F)F)cc2Cl)c1` [Example 145, 3-{3-[3-(2-{[3-chloro-5-(trifluoromethyl)pyridin-2-yl]oxy}-4-isopropoxyphenyl)propoxy]-1-methyl-1H-pyrazol-4-yl}propanoic acid], for which the EC50 on PPARγ-RXRα heterodimer is 2.6 nM. This counts as single-digit nanomolar.
Compound `CCCOc1cc(CCCOc2c(CC(=O)O)cccc2OC)n(C(C)c2ccc(Cl)cc2Cl)n1` (stereo not shown) [Example 19, [2-(3-{1-[1-(2,4-dichlorophenyl)ethyl]-3-propoxy-1H-pyrazol-5-yl}propoxy)-3-methoxyphenyl]acetic acid] came in with an EC50 on PPARγ-RXRα heterodimer of 3.2 nM.
`CC(C)Oc1cc(CCCOc2nn(Cc3ccccc3)cc2CC(=O)O)n(Cc2ccc(Cl)cc2OC(C)C)n1` [Example 71, (1-benzyl-3-{3-[1-(4-chloro-2-isopropoxybenzyl)-3-isopropoxy-1H-pyrazol-5-yl]propoxy}-1H-pyrazol-4-yl)acetic acid]: it took 39 nM to reach a half-maximal effect at PPARγ-RXRα heterodimer (EC50).
The compound `CC(C)Oc1ccc(CCCOc2nn(Cc3ccccc3)cc2CC(=O)O)c(OCc2ccc(Cl)cc2Cl)c1` [Example 175, [1-benzyl-3-(3-{2-[(2,4-dichlorobenzyl)oxy]-4-isopropoxyphenyl}propoxy)-1H-pyrazol-4-yl]acetic acid] returned a melting point of 103 to 104 °C.
Compound `CCCn1nc(OCc2ccc3ccccc3n2)cc1COc1c(CC)cccc1CC(=O)O` [Example 5, (3-ethyl-2-{[1-propyl-3-(quinolin-2-ylmethoxy)-1H-pyrazol-5-yl]methoxy}phenyl)acetic acid] had a melting point of 118 to 119 °C.
Same read-out and setting: the result for `CCOc1cc(C(=O)c2ccccn2)ccc1OCCOc1c(CC(=O)O)cccc1OC` [Example 123, (2-{2-[2-ethoxy-4-(pyridin-2-ylcarbonyl)phenoxy]ethoxy}-3-methoxyphenyl)acetic acid] reads 184 to 186 °C; that for `CCOc1nn(Cc2ccc(Cl)cc2Cl)cc1CCCOc1cc(CCC(=O)O)n(-c2ccccc2)n1` [Example 183, 3-(3-{3-[1-(2,4-dichlorobenzyl)-3-ethoxy-1H-pyrazol-4-yl]propoxy}-1-phenyl-1H-pyrazol-5-yl)propanoic acid], 132 to 133 °C.
Still for that read-out and setting: the result for `CCn1nc(OCCCc2ccc(OC(C)C)cc2OCc2ccc(Cl)cc2Cl)cc1CCC(=O)O` [Example 163, 3-[3-(3-{2-[(2,4-dichlorobenzyl)oxy]-4-isopropoxyphenyl}propoxy)-1-ethyl-1H-pyrazol-5-yl]propanoic acid] reads 110 to 111 °C; that for `COCOc1cc(CCCOc2ncccc2CC(=O)O)n(Cc2ccc(Cl)cc2Cl)n1` [Example 207, (2-{3-[1-(2,4-dichlorobenzyl)-3-(methoxymethoxy)-1H-pyrazol-5-yl]propoxy}pyridin-3-yl)acetic acid], 101 to 102 °C.
Still for that read-out and setting: the result for `CC(C)c1ncc(CCCOc2nn(C)cc2CC(=O)O)c(Oc2ccc(Cl)cc2Cl)n1` [Example 128, (3-{3-[4-(2,4-dichlorophenoxy)-2-isopropylpyrimidin-5-yl]propoxy}-1-methyl-1H-pyrazol-4-yl)acetic acid] reads 107 to 108 °C; that for `CCOc1cc(Cl)ccc1Cn1nc(OC(C)C)cc1CCCOc1c(CC(=O)O)cccc1OC` [Example 69, (2-{3-[1-(4-chloro-2-ethoxybenzyl)-3-isopropoxy-1H-pyrazol-5-yl]propoxy}-3-methoxyphenyl)acetic acid], 98 to 99 °C.
As for `CCc1cccc(CC(=O)O)c1OCCn1cc(CCOc2ncc(C(F)(F)F)cc2Cl)c(OC(C)C)n1` [Example 188, (2-{2-[4-(2-{[3-chloro-5-(trifluoromethyl)pyridin-2-yl]oxy}ethyl)-3-isopropoxy-1H-pyrazol-1-yl]ethoxy}-3-ethylphenyl)acetic acid], the melting point is 76.5 to 77.5 °C.
Take `COc1cc(CCCOc2c(CC(=O)O)cccc2OC)n(Cc2ccc(Cl)cc2Cl)n1` [Example 28, (2-{3-[1-(2,4-dichlorobenzyl)-3-methoxy-1H-pyrazol-5-yl]propoxy}-3-methoxyphenyl)acetic acid]: the melting point lay in the range of 111 to 112 °C.
